The values that follow come from paper PMC4250310 (Bioorganic & medicinal chemistry letters, 2014).

Data set [1] can be described thus: in vitro. The settings on record: plasma.
The conditions of data set [2]: ref our previous work; cited from earlier work.
Data set [3] in a line: in vitro. The settings on record: mouse, microsomes.
The test system of data set [4] is PC12-G93A-YFP cell line. The experiment in a line: cytotoxicity protection assay against mutant SOD1-induced cytotoxicity. The settings on record: read-out: Potency (EC50). In kind it is cell-based.
Data set [5] is described as follows: physchem.

≈ marks a conversion by molar mass, not a printed value.

Consider `O=C1CC(=O)N(CCc2ccccc2)C(=O)N1CCc1ccccc1` [Compound 1, 1,3-bis(2-phenylethyl)pyrimidine-2,4,6(1H,3H,5H)-trione], for which the half-life in data set [1] turned out to be 63.5 min; in data set [3], 16 min. The maximum tolerated dose in data set [2] is recorded as 100 mg/kg. For the same compound, the EC50 in data set [4] is 1.68 µM. The solubility in data set [5] was found to be 31.3 µM (≈ 10.5 µg/mL).
